Experimental findings from ChEMBL document CHEMBL1140205, “Discovery and development of fatty acid amide hydrolase (FAAH) inhibitors” (J Med Chem, 2008) are described below.

For one data set, the species on record is Rattus norvegicus. The data set can be described thus: Ex vivo inhibition of FAAH activity in rat brain after 16 hrs. The data set is classed as functional.
The target in data set [1] is T1, Fatty-acid amide hydrolase 1 (Rattus norvegicus, UniProt P97612).
T1 sequence (P97612 whole entry): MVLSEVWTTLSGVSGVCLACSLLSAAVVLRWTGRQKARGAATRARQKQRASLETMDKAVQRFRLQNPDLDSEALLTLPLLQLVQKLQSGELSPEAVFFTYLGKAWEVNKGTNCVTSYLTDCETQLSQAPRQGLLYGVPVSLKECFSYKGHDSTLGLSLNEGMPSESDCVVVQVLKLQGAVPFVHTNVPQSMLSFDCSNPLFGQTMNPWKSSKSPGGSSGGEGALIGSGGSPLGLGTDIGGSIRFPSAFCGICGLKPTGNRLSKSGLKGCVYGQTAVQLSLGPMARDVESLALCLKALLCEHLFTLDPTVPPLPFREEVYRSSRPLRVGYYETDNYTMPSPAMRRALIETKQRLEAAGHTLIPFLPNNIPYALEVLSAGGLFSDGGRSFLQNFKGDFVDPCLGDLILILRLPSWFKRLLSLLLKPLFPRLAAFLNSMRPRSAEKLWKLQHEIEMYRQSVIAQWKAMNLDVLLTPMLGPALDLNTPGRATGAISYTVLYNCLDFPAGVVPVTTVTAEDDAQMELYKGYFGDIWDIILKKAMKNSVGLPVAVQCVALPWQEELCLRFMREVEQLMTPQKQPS
Briefly: Inhibition of rat FAAH.

For data set [2], the target named is T1, Fatty-acid amide hydrolase 1.
Substrate in data set [3]: CCCCCCCC/C=C\CCCCCCCC(N)=O
The data set can be described thus: Activity of FAAH.

As to `NC(=O)c1cccc(-c2cccc(OC(=O)NC3CCCCC3)c2)c1` [URB-597], in the data set filed under Rattus norvegicus, the “inhibition (INH)” value is on record as 90%.

Take `CN(C)C(=O)n1nnnc1Cc1ccc(-c2ccccc2)cc1`: the half-maximal inhibitory concentration (IC50) in data set [1] was determined as 0.0124 µM.

In turn, `O=C1O/C(=C/Br)CCC1c1cccc2ccccc12` (stereo unspecified) [BROMOENOL LACTONE] returned an IC50 in data set [2] of 0.8 µM.

In the case of `CCCC(C)C1(CC)C(=O)NC(=S)NC1=O` (stereo unspecified) [THIOPENTAL], half-maximal inhibition in data set [1] (IC50) was put at 2000 µM.

As to `CC(C)c1cccc(C(C)C)c1O` [PROPOFOL], the IC50 in data set [1] was 14 µM.

B1: Fatty-acid amide hydrolase 1 (Homo sapiens), O00519 (protein)
chain: MVQYELWAALPGASGVALACCFVAAAVALRWSGRRTARGAVVRARQRQRAGLENMDRAAQRFRLQNPDLDSEALLALPLPQLVQKLHSRELAPEAVLFTYVGKAWEVNKGTNCVTSYLADCETQLSQAPRQGLLYGVPVSLKECFTYKGQDSTLGLSLNEGVPAECDSVVVHVLKLQGAVPFVHTNVPQSMFSYDCSNPLFGQTVNPWKSSKSPGGSSGGEGALIGSGGSPLGLGTDIGGSIRFPSSFCGICGLKPTGNRLSKSGLKGCVYGQEAVRLSVGPMARDVESLALCLRALLCEDMFRLDPTVPPLPFREEVYTSSQPLRVGYYETDNYTMPSPAMRRAVLETKQSLEAAGHTLVPFLPSNIPHALETLSTGGLFSDGGHTFLQNFKGDFVDPCLGDLVSILKLPQWLKGLLAFLVKPLLPRLSAFLSNMKSRSAGKLWELQHEIEVYRKTVIAQWRALDLDVVLTPMLAPALDLNAPGRATGAVSYTMLYNCLDFPAGVVPVTTVTAEDEAQMEHYRGYFGDIWDKMLQKGMKKSVGLPVAVQCVALPWQEELCLRFMREVERLMTPEKQSS
As for B1, the Km in data set [3] was determined as 5 µM.

Usually IC50 stands for the concentration that inhibits the measured activity by half. Higher therefore signals weaker potency in that assay. The Km is the substrate concentration at which the rate is half of its maximum.
